According to PubChem BioAssay AID248 (DTP/NCI, 2004):
Values joined by “and” are separate entries in the source; they are usually repeats but may differ in a detail not shown here. Identical values can stand only once. Toxic doses and inconclusive results are not listed.

System: L1210 leukemia ip in BDF1 mice, survival T/C
Experiment: NCI In Vivo Anticancer Drug Screen. Data for tumor model L1210 Leukemia (intraperitoneal) in B6D2F1 (BDF1) mice
Conditions: endpoint: mean survival time, higher = longer survival
Outline: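 Ratio derived from survival: compound-dosed mice over vehicle-dosed mice, all bearing a transplantable tumor.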

[1] = dose: 100.0 mg/kg/injection, schedule: Q01DX009 (ip), vehicle: saline with Tween-80
[2] = dose: 200.0 mg/kg/injection, schedule: Q01DX009 (ip), vehicle: saline with Tween-80
[3] = dose: 400.0 mg/kg/injection, schedule: Q01DX009 (ip), vehicle: saline with Tween-80
[4] = dose: 100.0 mg/kg/injection, schedule: Q01DX009 (ip), vehicle: Klucel (hydroxypropylcellulose) (HPC)
[5] = dose: 200.0 mg/kg/injection, schedule: Q01DX009 (ip), vehicle: Klucel (hydroxypropylcellulose) (HPC)
[6] = dose: 400.0 mg/kg/injection, schedule: Q01DX009 (ip), vehicle: Klucel (hydroxypropylcellulose) (HPC)

Structure (SMILES): CCCCCCCCCCOP(=S)(N1CC1)N1CC1
- T/C (dose: 2.5 mg/kg/injection, schedule: Q01DX Z (ip), vehicle: carboxymethylcellulose (CMC)): 107 % of control
- T/C (dose: 5.0 mg/kg/injection, schedule: Q01DX Z (ip), vehicle: carboxymethylcellulose (CMC)): 118 % of control
- T/C (dose: 20.0 mg/kg/injection, schedule: Q01DX Z (ip), vehicle: carboxymethylcellulose (CMC)): 232 % of control and 260 % of control
- T/C (dose: 40.0 mg/kg/injection, schedule: Q01DX Z (ip), vehicle: carboxymethylcellulose (CMC)): 150 % of control

Structure (SMILES): CCCCCCc1cc(N=Nc2ccc(S(=O)(=O)Nc3nccc(C)n3)cc2)c(O)cc1O
- T/C (dose: 100.0 mg/kg/injection, schedule: Q01DX001 (ip), vehicle: carboxymethylcellulose (CMC)): 95 % of control
- T/C (dose: 200.0 mg/kg/injection, schedule: Q01DX001 (ip), vehicle: carboxymethylcellulose (CMC)): 98 % of control
- T/C (dose: 400.0 mg/kg/injection, schedule: Q01DX001 (ip), vehicle: carboxymethylcellulose (CMC)): 93 % of control

Structure (SMILES): CCCCCOC(=O)C1OC1(C)c1ccccc1 (centres undefined)
- T/C [1]: 98 % of control
- T/C [2]: 91 % of control
- T/C [3]: 88 % of control

Structure (SMILES): ClC(=C(c1ccccc1)c1ccccc1)c1ccccc1
- T/C [4]: 92 % of control
- T/C (dose: 100.0 mg/kg/injection, schedule: Q04DX003 (ip), vehicle: Klucel (hydroxypropylcellulose) (HPC)): 94 % of control
- T/C [5]: 96 % of control
- T/C (dose: 200.0 mg/kg/injection, schedule: Q04DX003 (ip), vehicle: Klucel (hydroxypropylcellulose) (HPC)): 92 % of control
- T/C [6]: 95 % of control
- T/C (dose: 400.0 mg/kg/injection, schedule: Q04DX003 (ip), vehicle: Klucel (hydroxypropylcellulose) (HPC)): 95 % of control

Structure (SMILES): CCOC(=O)OCc1ccccc1
- T/C (dose: 100.0 mg/kg/injection, schedule: Q04DX002 (ip), vehicle: saline with Tween-80): 94 % of control
- T/C (dose: 200.0 mg/kg/injection, schedule: Q04DX002 (ip), vehicle: saline with Tween-80): 109 % of control
- T/C (dose: 400.0 mg/kg/injection, schedule: Q04DX002 (ip), vehicle: saline with Tween-80): 102 % of control

Structure (SMILES): Cc1noc(N)c1-n1c(C)ccc1C
- T/C [1]: 102 % of control
- T/C (dose: 100.0 mg/kg/injection, schedule: Q04DX003 (ip), vehicle: saline with Tween-80): 100 % of control
- T/C [2]: 105 % of control
- T/C (dose: 200.0 mg/kg/injection, schedule: Q04DX003 (ip), vehicle: saline with Tween-80): 98 % of control
- T/C [3]: 100 % of control
- T/C (dose: 400.0 mg/kg/injection, schedule: Q04DX003 (ip), vehicle: saline with Tween-80): 94 % of control

Structure (SMILES): Cc1ccc(-n2c(O)c(N=Nc3ccc(Br)cc3)c(=O)n(-c3ccc(I)cc3)c2=S)cc1
- T/C (dose: 50.0 mg/kg/injection, schedule: Q01DX001 (ip), vehicle: Klucel (hydroxypropylcellulose) (HPC)): 100 % of control
- T/C (dose: 100.0 mg/kg/injection, schedule: Q01DX001 (ip), vehicle: Klucel (hydroxypropylcellulose) (HPC)): 109 % of control
- T/C (dose: 200.0 mg/kg/injection, schedule: Q01DX001 (ip), vehicle: Klucel (hydroxypropylcellulose) (HPC)): 106 % of control

Structure (SMILES): COCCOC(C)C(/C=N/NC(N)=S)=N/NC(N)=S (centres undefined)
- T/C (dose: 50.0 mg/kg/injection, schedule: Q01DX001 (ip), vehicle: saline): 100 % of control
- T/C (dose: 100.0 mg/kg/injection, schedule: Q01DX001 (ip), vehicle: saline): 100 % of control
- T/C (dose: 200.0 mg/kg/injection, schedule: Q01DX001 (ip), vehicle: saline): 93 % of control
- T/C (dose: 400.0 mg/kg/injection, schedule: Q01DX001 (ip), vehicle: saline): 97 % of control

Structure (SMILES): CCOC(=O)c1ccc(NC(=O)Oc2cccc(NC(C)=O)c2)cc1
- T/C [4]: 92 % of control
- T/C [5]: 95 % of control
- T/C [6]: 92 % of control

Structure (SMILES): OCC#CCO
- T/C (dose: 5.0 mg/kg/injection, schedule: Q01DX001 (ip), vehicle: carboxymethylcellulose (CMC)): 95 % of control
- T/C (dose: 10.0 mg/kg/injection, schedule: Q01DX001 (ip), vehicle: carboxymethylcellulose (CMC)): 104 % of control
- T/C (dose: 12.0 mg/kg/injection, schedule: Q04DX003 (ip), vehicle: saline): 98 % of control
- T/C (dose: 20.0 mg/kg/injection, schedule: Q01DX001 (ip), vehicle: carboxymethylcellulose (CMC)): 93 % of control
- T/C (dose: 25.0 mg/kg/injection, schedule: Q04DX003 (ip), vehicle: saline): 104 % of control
- T/C (dose: 40.0 mg/kg/injection, schedule: Q01DX001 (ip), vehicle: carboxymethylcellulose (CMC)): 106 % of control
- T/C (dose: 50.0 mg/kg/injection, schedule: Q01DX009 (ip), vehicle: other): 105 % of control
- T/C (dose: 50.0 mg/kg/injection, schedule: Q04DX003 (ip), vehicle: saline): 95 % of control
- T/C (dose: 80.0 mg/kg/injection, schedule: Q01DX001 (ip), vehicle: carboxymethylcellulose (CMC)): 95 % of control
